US20120046461A1, “STEROIDAL ANTI-HORMONE HYBRIDS” (Northeastern University, priority 2009, published 2012)
Values joined by “and” are separate entries in the source; they are usually repeats but may differ in a detail not shown here. Equal values may be shown once.

What was measured:
[1] = target: T1, LBD of human ERα (M250-V595) (Homo sapiens, UniProt P03372); assay: Competitive binding of [3H]E2 to ERα-LBD (RBA); settings: RBA against E2
T1 construct: the LBD of human ERα (M250-V595) is expressed; made in house; host or cells: Escherichia coli (lysates)
T1 sequence (P03372 250-595): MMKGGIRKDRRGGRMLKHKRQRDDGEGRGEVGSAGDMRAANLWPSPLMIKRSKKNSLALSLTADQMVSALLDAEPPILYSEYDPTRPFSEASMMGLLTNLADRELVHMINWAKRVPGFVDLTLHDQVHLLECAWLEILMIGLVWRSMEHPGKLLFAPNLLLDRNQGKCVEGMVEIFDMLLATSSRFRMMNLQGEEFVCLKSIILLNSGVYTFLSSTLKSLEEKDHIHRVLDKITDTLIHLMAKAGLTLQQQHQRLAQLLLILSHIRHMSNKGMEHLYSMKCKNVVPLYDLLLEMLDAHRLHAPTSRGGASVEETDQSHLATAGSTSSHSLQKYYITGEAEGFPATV
Method: (§1) A. Competitive Binding to Rat Cytosolic ER, Human LBD-ERα and Human LBD-ERβ
Biological evaluation used competitive binding assays with estradiol on the ERα-LBD. […] After incubation, the media was aspirated, the plates were washed 3 times, and the receptor-bound radioactivity absorbed to the plates was extracted with methanol and counted.
(§2) The ability of the described ERα ligands to bind to the ER was determined through their RBA against E2, in the competitive binding assay described above.

Human LBD-ERβ = target: T2, Human LBD-ERβ (Homo sapiens, UniProt Q92731); assay: Competitive binding to ERβ (RBA); settings: for RBA ERβ: RBA against E2
T2 construct: Human LBD-ERα and Human LBD-ERβ
T2 sequence (Q92731 264-498 limits assumed): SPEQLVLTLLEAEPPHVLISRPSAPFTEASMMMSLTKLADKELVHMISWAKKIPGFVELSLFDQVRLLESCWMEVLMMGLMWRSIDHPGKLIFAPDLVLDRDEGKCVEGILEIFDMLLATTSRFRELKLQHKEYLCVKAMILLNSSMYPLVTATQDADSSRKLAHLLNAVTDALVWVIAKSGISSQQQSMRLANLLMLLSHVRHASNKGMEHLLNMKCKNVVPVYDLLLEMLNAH
Method: as §1
Biological evaluation used competitive binding assays with estradiol on the ERα-LBD. Binding affinities of the estradiol derivatives relative to E, were performed in incubations with the LBD of ERα. in lysates of Escherichia coli in which the LBD of human ERα (M250-V595) is expressed as described in Antonello, et al. (J. Med. Chem. (2006) 49:6642-6645), Morphy, et al. (J. Med. Chem. (2006), 49:4961-4970); Meunier (Accounts Chem. Res. (2007), and Ojima (Accounts Chem. Res. (2007). The assay was perfoiiued overnight in phosphate buffered saline +1 mM EDTA at RT. The competition for binding of [^3H]E2 to the LBD of the E2-derivatives in comparison to E2, relative binding affinity (RBA) was determined over a range of concentrations from 10^−12 to 10^−6M. After incubation, the media was aspirated, the plates were washed 3 times, and the receptor-bound radioactivity absorbed to the plates was extracted with methanol and counted.
as §2

[2] = tested on: alkaline phosphatase in Ishikawa cells; assay: Stimulation of alkaline phosphatase in Ishikawa cells (estrogenic potency); assay type: cell-based, human; settings: for Ishikawa - RSA: relative stimulatory activity in comparison to E2 = 100%
Method: The methodology for determining estrogenic potency, estrogen receptor binding, and stimulation of an estrogen responsive gene in alkaline phosphatase in the Ishikawa cell was performed as described. (Stabile, et al. (2005) Cancer Res. 65:1459-1470; Perez-Soler (2007) Clin. Can. Res. 13(Suppl. 15):[…]; Nicholson, et al. (2000) British J. Cancer 82:501-513; Schiff, et al. (2004) Clin. Can. Res. 10 (supp.1):331s-336s).
(§3) The induction of AlkP in human endometrial adenocarcinoma cells (Ishikawa) grown in 96-well microtiter plates was performed as described. The cells were grown in Phenol red-free medium with estrogen-depleted (charcoal stripped) bovine serum in the presence or absence of varying amounts of the steroids across a dose range of at least 6 orders of magnitude. After 3 days, the cells were washed, frozen, thawed, and then incubated with 5 mM p-nitrophenyl phosphate, a chromogenic substrate for the AlkP enzyme, at pH 9.8. To ensure linear enzymatic analysis, the plates were monitored kinetically for the production of p-nitrophenol at 405 nm.
(§4) Each compound was analyzed in at least 3 separate experiments performed in duplicate. The Ki and RSA (RSA=ratio of 1/EC50 of the steroid analog to that of E2×100) were determined using the curve fitting program Prism. The results are shown below in FIGS. 1A-1C, 2, 3, and 4.

[3] = tested on: MCF-7 (ER-positive) breast cancer cell line; assay: Cellular proliferation of MCF-7 (ER-positive) breast cancer cells, mitomycin series; assay type: cell-based; settings: MCF-7 cells, FIG. 2, 4, 5
Source text: Another series of biological assays (Litzenburger, et al., Clin. Can. Res. (2009) 15:226 and Georghis, et al., Can. Chemothera. Pharmacol. (1992) 29:290.) are run to evaluate the effect of the mitomycin moiety on cellular proliferation of MCF-7 (ER-positive) and MDA-231 (ER-negative) breast cancer cell lines.

MCF-7 cells = assay: Anti-proliferative assay (MTS/PMS), MCF-7; assay type: cell-based; settings: 72 h
Method: (§5) MCF-7 and SKBr3 cells were maintained in a 1:1 mixture of Advanced DMEM/F12 (Gibco) supplemented with nonessential amino acids, L-glutamine (2 mM), streptomycin ([…]), penicillin (100 units/mL), and 10% FBS. Cells were grown to confluence in a humidified atmosphere (37° C., 5% CO2), seeded (2000/well, 100 μL) in 96-well plates, and allowed to attach overnight. Compound or GDA at varying concentrations in DMSO (1% DMSO final concentration) was added, and cells were returned to the incubator for 72 h. At 72 h, the number of viable cells was determined using an MTS/PMS cell proliferation kit (Promega) per the manufacturer's instructions. Cells incubated in 1% DMSO were used as 100% proliferation, and values were adjusted accordingly. IC50 values were calculated from separate experiments performed in triplicate using GraphPad Prism.

SKBr3 cells = assay: Anti-proliferative assay (MTS/PMS), SKBr3; assay type: cell-based; settings: 72 h
Method: as §5

[4] = tested on: alkaline phosphatase in Ishikawa cells; assay: Inhibition of E2-stimulated alkaline phosphatase in Ishikawa cells; assay type: cell-based, human; settings: Ki determined in the presence of I nm E2
Method: as §3, §4

C[C@]12C[C@H](c3ccc(OCCN=[N+]=[N-])cc3)[C@@H]3c4ccc(O)cc4CC[C@H]3[C@@H]1CC[C@@H]2O [Compound 2-13, (8S,9R,11S,13S,14S,17S)-11-(4-(2-azidoethoxy)phenyl)-7,8,9,11,12,13,14,15,16,17-decahydro-13-methyl-6H-cyclopenta[a]phenanthrene-3,17-diol]
RBA ERα [1]: 39.3±9.0 and 39.3
RBA ERα ([1]; listed as drawing 40): 39.3 ± 9.0
ER-subtype selectivity (Human LBD-ERβ; ERα vs ERβ): does not differentiate between ERα and ERβ
RBA ERβ (Human LBD-ERβ): 33.7±1.77
RBA ERβ (Human LBD-ERβ; listed as drawing 40): 33.7 ± 1.77
β/α (Human LBD-ERβ; ratio of RBA ERβ to RBA ERα): 0.86

C[C@]12C[C@H](c3ccc(OCCOCCOCCN=[N+]=[N-])cc3)[C@@H]3c4ccc(O)cc4CC[C@H]3[C@@H]1CC[C@@H]2O [EH-N7-092, 11β-[4-(ω-azido-triethyleneglycoloxy)]-phenyl-estradiol]
Ishikawa - RSA [2]: 0%

CO[C@@]12[C@H](COC(N)=O)C3=C(C(=O)C(C)=C(N)C3=O)N1C[C@@H]1N[C@@H]12 [mitomycin C]
anti-proliferative response [3]: more potent in the MCF-7 vs. the MDA-231 cell lines

Estradiol [Compound E2, reference compound]
EC50 ([2]; Ishikawa cells, read-out: EC50 of E2, alkaline phosphatase induction): ~0.2 nM

Geldanamycin aminopentanamidocarbonylphenyl-methyl difluorocyclooctenyltriazolo-ethoxy Anti-Estrogen [Compound 3-17]
EC50 (MCF-7 cells): 17000 nM

Geldanamycin-aminoheptaethylene glycolyl-triazolo-methylaminoethoxy Anti-Estrogen [Compound 3-15]
EC50 (MCF-7 cells): 102 ± 5 nM

Geldanamycin-aminomethyl-triazolo-ethoxy Anti-Estrogen [Compound 3-13]
EC50 (MCF-7 cells): 1200 ± 90 nM
EC50 (SKBr3 cells): 710 ± 160 nM

N-propargyl-N′-methyl-mitomycin C [EH-N9-006]
Ishikawa - RSA [2]: 0%
Ki [4]: 40 ± 4 nM
